Measured values: patent publication US20260067245A1, “METHODS AND COMPOSITIONS FOR TUMOR THERAPY” (MEMORIAL SLOAN KETTERING CANCER CENTER, priority 2022, published 2026)
Entries after “also recorded” stand apart in the source; their conditions may differ.

Tested on: B16F10 cells
Experiment: mouse bilateral tumor model, B16 murine melanoma (one tumor injected, contralateral not injected)
Format: in vivo
Method: By injecting only one of two tumors throughout the course of the experiment it is possible to separate the effect of the injected tumor from the “abscopal” effect on the distant non-injected tumor. Once treatment begins, tumors are measured twice weekly for at least 90 days.
Also, unless indicated otherwise, controls were treated with isotype control antibodies and vehicle only. Furthermore, unless indicated otherwise, all experiments were performed using the mouse bilateral tumor model described below and summarized in FIG. 2.
The animals used had large tumors in two opposite flanks. One tumor was injected while the second remained non-injected (FIG. 2), allowing separate analysis of the effect at the injected tumor from the so-called ‘abscopal’ effect at the non-injected tumor, in order to understand how this treatment could benefit patients with metastatic cancer. […] C57BL/6 mice were initially implanted with 5×10^5 syngeneic B16F10 cells intra-dermally in bilateral flanks. 8 days post tumor cell implantation, when bilateral tumors measured ˜0.5 cm, intratumoral (IT) treatment with various test agents was initiated together with intraperitoneal (IP) anti-PD-1 mAb. Treatment was administered twice weekly for 4 weeks into one of the bilateral tumors. The contralateral tumor remained un-injected for the duration of the experiment.
8 days post tumor cell implantation, when bilateral tumors measured ˜0.5 cm, intratumoral (IT) treatment with agents selected to activate APCs was initiated together with intraperitoneal (IP) anti-PD-1 mAb. Treatment was administered twice weekly for 4 weeks into one of the bilateral tumors. The contralateral tumor remained un-injected for the duration of the experiment (see FIG. 2 for schematic of experimental protocol).
These nanoparticles were administered to animals receiving 250 μg intraperitoneal anti-PD-1 (RMP1-14) concurrently. Non-formulated control animals received mixtures of MPL (5 μg) and FGK45 (20 μg) injected intratumorally with RMP1-14 delivered intraperitoneally. Anti-PD-1-only control animals received 250 μg of intraperitoneal RMP1-14 alone. Isotype/vehicle control animals received isotype control mAbs and vehicle corresponding to the nanoparticle-treated group.

O=C1[O][Pt]2([NH][C@@H]3CCCC[C@H]3[NH]2)[O]C1=O [oxaliplatin]
survival (concurrent systemic (IP) addition to intratumoral MPL, anti-IL10R and anti-CD40 (41040)): increases survival

PolyIC
activity when substituted for MPL in the regimen (FIG. 35B, bilateral tumor model): could be substituted for MPL; also recorded: can be substituted for MPL, albeit possibly with slightly reduced activity
